# Measured values published in PMC11448502, “Cryo-EM structures of the human P2X1 receptor reveal subtype-specific architecture and antagonism by supramolecular ligand-binding” (Nature Communications, 2024).
# Residue numbers refer to the chain shown, from its start. Where “and” joins values, the source holds several entries; their conditions need not be identical. Equal entries are not always repeated. Entries after “also recorded” stand apart in the source; their conditions may differ.
# Tests used:
# [1] = tested on: P2X1; design: method as in doi: 10.1111/bph.15299; settings: reviewer comment, ref doi: 10.1111/bph.15299, read-out: EC50 of ATP; cited from earlier work
# [2] = molecular target: T1, hP2X1 K309A (Homo sapiens, UniProt P51575, K309A); assay: ATP dose response (EC50), TEVC in oocytes; format: cell-based
# T1 construct: hP2X1 mRNA that was made from linearized full-length wild-type or mutant pcDNA 3.1x; expressed in transfected cells; host or cells: Xenopus laevis oocytes (mRNA injection)
# T1 sequence (P51575 1-399 K309A): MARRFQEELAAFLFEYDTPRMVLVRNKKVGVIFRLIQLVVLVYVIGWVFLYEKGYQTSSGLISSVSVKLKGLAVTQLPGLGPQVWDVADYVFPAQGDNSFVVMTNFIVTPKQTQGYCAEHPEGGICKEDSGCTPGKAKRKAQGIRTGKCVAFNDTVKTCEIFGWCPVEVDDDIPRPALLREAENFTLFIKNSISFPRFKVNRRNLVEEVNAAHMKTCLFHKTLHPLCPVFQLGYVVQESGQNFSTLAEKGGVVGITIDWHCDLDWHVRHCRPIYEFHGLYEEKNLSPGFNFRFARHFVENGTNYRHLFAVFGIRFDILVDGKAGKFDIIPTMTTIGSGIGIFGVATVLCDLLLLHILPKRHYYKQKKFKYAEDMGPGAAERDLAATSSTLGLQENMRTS
# Procedure: (§1) Oocytes were purchased defolliculated from Ecocyte Bioscience in Barth’s Solution (88 mM NaCl, 1 mM KCl, 0.82 mM MgSO4, 0.33 mM Ca(NO3)2, 0.41 mM CaCl2, 2.4 mM NaHCO3, 5 mM Tris-HCl) supplemented with penicillin (100 U/mL) and streptomycin (100 µg/mL). Xenopus laevis oocytes were then injected with 50 nL of 100 ng/μL hP2X1 mRNA that was made from linearized full-length wild-type or mutant pcDNA 3.1x according to the protocol provided in the mMessage mMachine kit (Invitrogen). Injected oocytes were allowed to express for ~20 hours at 18 °C before recording was performed.
# (§2) Data acquisition was performed using the Oocyte Clamp OC-725C amplifier and pClamp 8.2 software. Buffers were applied using a gravity fed RSC-200 Rapid Solution Changer that flows at ~5 mL/min. All experiments use Sutter filamented glass 10 cm in length with an inner diameter of 0.69 mm and an outer diameter of 1.2 mm to impale oocytes and clamp the holding voltage at −60 mV. Experiments were recorded in buffer containing 10 mM HEPES (pH 7.4), 140 mM NaCl, 5 mM KCl, 2 mM CaCl2, 2 mM MgCl2, and 10 mM glucose.
# (§3) Excitatory responses to a dilution series of ATP between 6.4 nM and 10 mM were examined across the different mutants. Each evoked response was normalized to an initial ATP-induced current evoked by the following concentrations: 500 µM ATP for R292A, 2 mM ATP for K309A, and 100 µM ATP for the remaining mutants and wild-type receptor. The data was fit in Prism 9 using the nonlinear regression named “EC50, x is concentration” to afford EC50 values. This value was then averaged amongst each singular condition and reported as an average plus or minus the standard deviation.
# [3] = molecular target: T2, hP2X1 WT (Homo sapiens, UniProt P51575); assay: ATP dose response (EC50), TEVC in oocytes; format: cell-based
# T2 construct: hP2X1 mRNA that was made from linearized full-length wild-type or mutant pcDNA 3.1x; expressed in transfected cells; host or cells: Xenopus laevis oocytes (mRNA injection)
# T2 sequence (P51575 1-399): T1 sequence (P51575 1-399 K309A) with A309K
# Procedure: as §1, §2, §3
# [4] = molecular target: T3, hP2X1 K140A (Homo sapiens, UniProt P51575, K140A); assay: ATP dose response (EC50), TEVC in oocytes; format: cell-based; settings: for Normalized Current: hP2X1 K140A
# T3 construct: hP2X1 mRNA that was made from linearized full-length wild-type or mutant pcDNA 3.1x; expressed in transfected cells; host or cells: Xenopus laevis oocytes (mRNA injection)
# T3 sequence (P51575 1-399 K140A): T1 sequence (P51575 1-399 K309A) with K140A, A309K
# Procedure: as §1, §2, §3
# [5] = molecular target: T4, hP2X3 WT (Homo sapiens, UniProt P56373); assay: ATP dose response (EC50), TEVC in oocytes; format: cell-based
# T4 construct: expressed in transfected cells
# T4 sequence (P56373 1-397): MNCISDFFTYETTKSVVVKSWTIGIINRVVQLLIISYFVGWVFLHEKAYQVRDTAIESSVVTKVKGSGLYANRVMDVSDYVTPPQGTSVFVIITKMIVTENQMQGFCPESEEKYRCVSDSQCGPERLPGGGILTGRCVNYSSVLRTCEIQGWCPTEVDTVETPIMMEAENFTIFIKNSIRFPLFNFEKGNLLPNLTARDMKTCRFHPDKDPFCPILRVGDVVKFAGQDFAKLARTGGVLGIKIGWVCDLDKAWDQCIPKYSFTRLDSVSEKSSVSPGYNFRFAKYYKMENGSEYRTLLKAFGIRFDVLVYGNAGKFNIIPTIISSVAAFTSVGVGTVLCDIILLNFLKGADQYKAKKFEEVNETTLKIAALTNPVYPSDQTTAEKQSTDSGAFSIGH
structure (smiles),measurement,setting,value
Nc1ncnc2c1ncn2[C@@H]1O[C@H](COP(=O)(O)OP(=O)(O)OP(=O)(O)O)[C@@H](O)[C@H]1O [ATP],EC50,[1],500 to 1000 nM
same,EC50 of ATP,[2]; TEVC,impacted
same,Normalized Current,[2]; [ATP] 1.000E-02 M,1.006 and 0.9573 and 1.036
same,Normalized Current,[2]; [ATP] 2.000E-03 M,0.8423 and 0.8039 and 0.8072
same,Normalized Current,[2]; [ATP] 3.200E-06 M,0.000000
same,Normalized Current,[2]; [ATP] 4.000E-04 M,0.3324 and 0.3289 and 0.2846
same,EC50,"[3]; TEVC, Xenopus laevis oocytes, mean ± SD, triplicate, read-out: apparent affinity (EC50) of ATP",1700 ± 300 nM
same,Normalized Current,[3]; [ATP] 1.000E-04 M,1.041 and 0.9705 and 0.9151
same,Normalized Current,[3]; [ATP] 1.600E-07 M,0.08801 and 0.07128 and 0.05984
same,Normalized Current,[3]; [ATP] 4.000E-06 M,0.7387 and 0.5911 and 0.5682
same,Normalized Current,[3]; [ATP] 5.000E-04 M,1.055 and 1.025 and 0.9207
same,Normalized Current,[3]; [ATP] 8.000E-07 M,0.4523 and 0.3946 and 0.3316
same,Hill slope of activation by ATP,[3]; mean ± SD of three EC50 traces,0.9 ± 0.2
same,"apparent affinity (EC50) of ATP, effect of mutation","[4]; hP2X1 K140A vs wild-type, TEVC",do not appear to significantly change; also recorded: no major effect; also recorded: did not impact
same,Normalized Current,[4]; [ATP] 1.000E-04 M,1.047 and 0.9489 and 0.9169
same,Normalized Current,[4]; [ATP] 4.000E-06 M,0.661 and 0.6317 and 0.5508
same,Normalized Current,[4]; [ATP] 5.000E-04 M,1.045 and 0.9875 and 0.9677
same,EC50,[5]; TEVC,800 ± 100 nM
same,Normalized Current,[5]; [ATP] 1.000E-04 M,1.024 and 0.937 and 0.934
same,Normalized Current,[5]; [ATP] 1.563E-06 M,0.9021 and 0.8096 and 0.6657
same,Normalized Current,[5]; [ATP] 2.500E-05 M,1.229 and 0.9489 and 0.8224
same,Normalized Current,[5]; [ATP] 3.906E-07 M,0.1693 and 0.1661 and 0.1374
same,Normalized Current,[5]; [ATP] 6.250E-06 M,0.9276 and 0.9021 and 0.8266
same,Normalized Current,[5]; [ATP] 9.766E-08 M,0.0748 and 0.0739 and 0.04276
same,Hill slope of activation by ATP,[5]; mean ± SD of three EC50 traces,2.5 ± 0.6
